Experiments:
14-3-3σ/ERα [1] = biological target: T1, 14-3-3σ/ERα (Homo sapiens, UniProt P03372+P31947); experiment: Fluorescence anisotropy protein titration, FAM-labeled ERα peptide; type: binding; details: 10 nM FAM-ERα peptide; for X Fold stabilization (100 µM compound) of 14-3-3σ/ERα: versus DMSO reference; for Kd: 100 µM compound, overnight incubation
T1 construct: The 14-3-3 σ isoform (full-length for mass spectrometry and fluorescence anisotropy assays, ΔC for crystallography); made in house; host or cells: E. coli Rosetta 2(DE3)pLysS, pPROEX HTb vector
Method: To evaluate compound-mediated stabilization of the 14-3-3σ/ERα complex directly, FA protein titrations were performed at a saturating concentration of compound. FA protein titrations allowed the quantification of the cooperative effect by comparing the apparent dissociation constants (appKD) of the binary and ternary complexes. 14-3-3σ was titrated into 10 nM FAM-labeled ERα peptide in the presence of DMSO or 100 μM of the compounds (Table S4). […]
diluted in buffer (10 mM HEPES, pH 7.5, 150 mM NaCl, 0.1% Tween20, 1 mg/mL Bovine Serum Albumin (BSA; Sigma-Aldrich). Final DMSO in the assay was always 1%. […]
Protein titrations were made by titrating 14-3-3σ in a 2-fold dilution series (starting at 300 µM) to a mix of fluorescein-labeled peptide (10 nM) and DMSO or compound (100 µM). Fluorescence anisotropy measurements were performed after overnight incubation at room temperature. […]
Wells containing only FAM-peptide were used to set as G-factor at 35 mP. Data reported are at endpoint. EC50 and apparent Kd values were obtained from fitting the data with a four-parameter logistic model (4PL) in GraphPad Prism 7 for Windows. Data was obtained and averaged based on either three (compound titrations) or two (protein titrations) independent experiments.

14-3-3σ/ERα [2] = biological target: T1, 14-3-3σ/ERα; experiment: Fluorescence anisotropy compound titration, FAM-labeled ERα peptide; type: binding; details: 10 nM ERα-FAM labeled peptide, 1 µM 14-3-3σ, overnight incubation (24 h); read-out: EC50 value ERα (FA compound titration)
In short: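 Fluorescence anisotropy compound titration measuring stabilization of the 14-3-3σ/ERα interaction: compounds were titrated in a 2-fold dilution series (starting at 500 or 1000 µM) into a mix of 10 nM fluorescein-labeled ERα peptide and 1 µM 14-3-3σ (about EC25 of the complex) in HEPES buffer with 1% DMSO, read after overnight incubation at room temperature; EC50 from 4PL fitting.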

14-3-3σ = biological target: T2, 14-3-3σ (Homo sapiens, UniProt P31947); experiment: Mass spectrometry dose response, compound binding to 14-3-3σ in the absence of peptide (apo); details: 100 nM compound, 100 nM 14-3-3σ
T2 construct: The 14-3-3 σ isoform (full-length for mass spectrometry and fluorescence anisotropy assays, ΔC for crystallography); made in house; host or cells: E. coli Rosetta 2(DE3)pLysS, pPROEX HTb vector
T2 sequence (P31947 1-248): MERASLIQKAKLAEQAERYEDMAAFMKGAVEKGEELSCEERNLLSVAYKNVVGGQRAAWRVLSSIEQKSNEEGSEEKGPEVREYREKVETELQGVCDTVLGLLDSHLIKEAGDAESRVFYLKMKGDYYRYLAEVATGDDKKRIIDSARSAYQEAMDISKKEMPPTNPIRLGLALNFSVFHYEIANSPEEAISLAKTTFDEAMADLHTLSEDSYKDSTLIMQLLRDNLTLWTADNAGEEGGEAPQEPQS
In short: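 Covalent binding of compounds to Cys38 of full-length wild type human 14-3-3σ (100 nM) was measured by LC-MS without peptide present. Compounds from 50 mM DMSO stocks were serially diluted 3-fold and 1000 nl transferred to plates in TRIS buffer (10 mM, pH 8.0), 50 μl per well. Samples were desalted on a BEH-C4 column and analysed on a Xevo G2-XS Q-Tof at several time points.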

14-3-3σ/ERα [3] = biological target: T1, 14-3-3σ/ERα; experiment: Mass spectrometry dose response, compound binding to 14-3-3σ in the presence of ERα phosphopeptide; details: 100 nM compound, 100 nM 14-3-3σ, ERα-peptide 2 µM
In short: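 Covalent labeling of Cys38 on 14-3-3σ was tracked by LC-MS on a Waters Acquity UPLC/Xevo G2-XS Q-Tof, with samples desalted on a Protein BEH-C4 column. Full-length wild type 14-3-3σ (100 nM) plus ERα phosphopeptide was mixed with compound in 10 mM TRIS, pH 8.0, at 50 μl per well. Percent bound was measured at several time points.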

14-3-3σ/C-RAF [4] = biological target: T3, 14-3-3σ/C-RAF (Homo sapiens, UniProt P31947); experiment: Fluorescence anisotropy compound titration, FAM-labeled C-RAF peptide; type: binding; details: 10 nM C-RAF-FAM labeled peptide, 5 µM 14-3-3σ, overnight incubation; read-out: EC50 value C-RAF (FA compound titration)
T3 construct: The 14-3-3 σ isoform (full-length for mass spectrometry and fluorescence anisotropy assays, ΔC for crystallography); made in house; host or cells: E. coli Rosetta 2(DE3)pLysS, pPROEX HTb vector
T3 sequence (P31947 1-248): T2 sequence (P31947 1-248)
In short: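 A fluorescence anisotropy compound titration measured how compounds stabilize binding of 14-3-3σ to a fluorescein-labeled C-RAF peptide. Compounds were diluted 2-fold, from 500 or 1000 µM, into 10 nM labeled peptide with 5 µM 14-3-3σ, roughly its EC25, in HEPES buffer with 1% DMSO. Plates were read after overnight incubation at room temperature. EC50 values came from 4PL fits over three independent experiments.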

14-3-3σ/C-RAF [5] = biological target: T3, 14-3-3σ/C-RAF; experiment: Mass spectrometry dose response, compound binding to 14-3-3σ in the presence of C-RAF phosphopeptide; details: 100 nM compound, 100 nM 14-3-3σ, C-RAF peptide 18 µM
In short: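 Covalent binding of compounds to the native Cys38 of 14-3-3σ was monitored by LC-MS on a Waters Acquity UPLC/Xevo G2-XS Q-Tof, with samples desalted on a BEH-C4 column. Full-length wild type 14-3-3σ (100 nM) with C-RAF peptide in TRIS buffer (10 mM, pH 8.0) was incubated with compound dose series at room temperature.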

X Fold stabilization (100 µM compound) of 14-3-3σ/ERα (14-3-3σ/ERα [1]) [fold] | Kd (14-3-3σ/ERα [1]) [µM] | EC50 (14-3-3σ/ERα [2]) [µM] | Percentage (%) bound of compound to 14-3-3σ, APO 1h (14-3-3σ) [%] | Percentage (%) bound of compound to 14-3-3σ, APO 8h (14-3-3σ) [%] | Percentage (%) bound of compound to 14-3-3σ, APO 16h (14-3-3σ) [%] | Percentage (%) bound of compound to 14-3-3σ, APO 24h (14-3-3σ) [%] | Percentage (%) bound of compound to 14-3-3σ, ERα 1h (14-3-3σ/ERα [3]) [%] | Percentage (%) bound of compound to 14-3-3σ, ERα 8h (14-3-3σ/ERα [3]) [%] | Percentage (%) bound of compound to 14-3-3σ, ERα 16h (14-3-3σ/ERα [3]) [%] | Percentage (%) bound of compound to 14-3-3σ, ERα 24h (14-3-3σ/ERα [3]) [%] | EC50 (14-3-3σ/C-RAF [4]) [µM] | Percentage (%) bound of compound to 14-3-3σ, CRAF 1h (14-3-3σ/C-RAF [5]) [%] | Percentage (%) bound of compound to 14-3-3σ, CRAF 8h (14-3-3σ/C-RAF [5]) [%] | Percentage (%) bound of compound to 14-3-3σ, CRAF 24h (14-3-3σ/C-RAF [5]; 24h) [%] | Percentage (%) bound of compound to 14-3-3σ, CRAF 24h (14-3-3σ/C-RAF [5]; head prints 24h) [%] | Structure (SMILES)
18 | 0.077 | 4 ± 1 | 5.6 | 11.2 | 22.6 | 40.5 | 42.3 | 80.4 | 96.6 | 99.8 | 57 ± 5 | 6.0 | 13.4 | 49.6 | 27.1 | O=C(CCl)N1CCC2(CC1)CC(NC(=O)C1(Nc3ccc(Cl)cc3)CCOCC1)C2 [compound 163]
13 | 0.16 | 6 ± 0.3 | 1.2 | 3.2 | 5.5 | 13.3 | 32.6 | 60.3 | 87.6 | 94.0 | 77 ± 5 | 1.8 | 4.0 | 23.3 | 11.8 | O=C(CCl)NC1CC2(CCN(C(=O)C3(Nc4ccc(Cl)cc4)CCOCC3)CC2)C1 [compound 166]

The next lines start with the molecule.

Structure (SMILES) | X Fold stabilization (100 µM compound) of 14-3-3σ/ERα (14-3-3σ/ERα [1]) [fold] | Kd (14-3-3σ/ERα [1]) [µM] | EC50 (14-3-3σ/ERα [2]) [µM] | Percentage (%) bound of compound to 14-3-3σ, APO 1h (14-3-3σ) [%] | Percentage (%) bound of compound to 14-3-3σ, APO 8h (14-3-3σ) [%] | Percentage (%) bound of compound to 14-3-3σ, APO 16h (14-3-3σ) [%] | Percentage (%) bound of compound to 14-3-3σ, APO 24h (14-3-3σ) [%] | Percentage (%) bound of compound to 14-3-3σ, ERα 1h (14-3-3σ/ERα [3]) [%] | Percentage (%) bound of compound to 14-3-3σ, ERα 8h (14-3-3σ/ERα [3]) [%] | Percentage (%) bound of compound to 14-3-3σ, ERα 16h (14-3-3σ/ERα [3]) [%] | Percentage (%) bound of compound to 14-3-3σ, ERα 24h (14-3-3σ/ERα [3]) [%] | EC50 (14-3-3σ/C-RAF [4]) [µM] | Percentage (%) bound of compound to 14-3-3σ, CRAF 1h (14-3-3σ/C-RAF [5]) [%] | Percentage (%) bound of compound to 14-3-3σ, CRAF 8h (14-3-3σ/C-RAF [5]) [%] | Percentage (%) bound of compound to 14-3-3σ, CRAF 24h (14-3-3σ/C-RAF [5]; 24h) [%] | Percentage (%) bound of compound to 14-3-3σ, CRAF 24h (14-3-3σ/C-RAF [5]; head prints 24h) [%]
O=C(CCl)NCC1CCN(C(=O)C2(Nc3ccc(Cl)cc3)CCOCC2)CC1 [compound 127] | 19 | 0.077 | 2 ± 0.3 | 0 | 0 | 1.0 | 2.0 | 9.5 | 19.6 | 56.8 | 85.2 | > 150 | 1.1 | 2.9 | 10.5 | 7.4
O=C(CCl)NCCCC1CCN(C(=O)C2(Nc3ccc(Cl)cc3)CCOCC2)CC1 [compound 149] | 55 | 0.027 | 4 ± 0.4 | 0.6 | 0.8 | 14.2 | 17.7 | 7.6 | 16.2 | 37.7 | 86.7 |  | 0 | 1.0 | 23.3 | 3.4
O=C(CCl)N1CCC2(CC1)CCN(C(=O)C1(Nc3ccc(Cl)cc3)CCOCC1)CC2 [compound 170] | 12 | 0.119 | 8 ± 1 | 1.0 | 1.8 | 3.4 | 5.3 | 38.2 | 68.1 | 86.2 | 94.0 | 58 ± 11 | 3.6 | 8.0 | 19.7 | 12.1
CC1CC(Nc2ccc(Cl)cc2)(C(=O)N2CCC(CNC(=O)CCl)CC2)CC(C)O1 (centres unmarked) [compound 178] | 15 | 0.094 | 12 ± 1 | 0.9 | 1.7 | 2.4 | 2.5 | 24.6 | 36.8 | 77.5 | 96.4 | 86 ± 11 | 0 | 0.5 | 5.7 | 2.0

Reference: PMC10515640, “Structure-Based Optimization of Covalent, Small-Molecule Stabilizers of the 14-3-3σ/ERα Protein–Protein Interaction from Nonselective Fragments” (Journal of the American Chemical Society, 2023)
